# Test results published in patent publication US20230364051A1, “FORMULATIONS AND METHODS FOR IMPROVING AVIAN HEALTH” (CORNELL UNIVERSITY, priority 2022, published 2023).
# Marks after values point to notes of the source that are not given here.
# System: duodenum
# Experiment: Duodenal tissue morphology examination (villi, crypts, goblet cells, Paneth cells)
# Assay type: in vivo, Gallus gallus
# Conditions: for # Crypt Paneth Cells / Crypt Depth / Crypt Goblet Cell Diameter / Crypt Goblet Cell Number Acidic / Crypt Goblet Cell Number Mixture / Crypt Goblet Cell Number Neutral / Crypt Goblet Cell Number Total / Crypt Paneth cell Diameter / Villi Goblet Cell Diameter / Villi Goblet Cell Number Acidic / Villi Goblet Cell Number Mixture / Villi Goblet Cell Number Neutral / Villi Goblet Cell Number Total / Villus Height / Villus Surface Area / Villus Width: day 17, duodenum at hatch
# Method: Cornish-cross fertile broiler eggs (Gallus gallus, n = 39) were obtained from a commercial hatchery (Moyer’s chicks, Quakertown, PA, USA). The eggs were incubated under optimal conditions at the Cornell University Animal Science Poultry Farm Incubator [18]. […] Each group was then injected with the specific solution (1 mL per egg) with a 21-gauge needle into the amniotic fluid. Treatments in powder form were separately diluted in DI H2O. […] After injection, the injection holes were sealed with cellophane tape and the eggs were placed in hatching baskets such that each treatment was equally represented at each incubator location. Immediately upon hatch (day 21), blood was taken for hemoglobin determination and all chicks were then euthanized by CO2 exposure. The small intestine, pectoral muscle, cecum, and liver were collected, immediately frozen in liquid nitrogen, and then stored in a -80° C. freezer until analysis.
# Intestinal morphology examination was performed as was previously described. Duodenum samples were fixed in fresh 4 wt. % (v/v) buffered formaldehyde, dehydrated, cleared, and embedded in paraffin. Serial sections were cut at 5 µm and placed on glass slides. Intestinal sections were deparaffinized in xylene, rehydrated in a graded alcohol series, stained with Alcian Blue/Periodic acid-Schiff, and examined by light microscopy. The following variables were measured in the intestine: villus height, villus width, crypt depth, Paneth cell number per crypt, Paneth cell width, goblet cell number, goblet cell diameter, types of goblet cells in the villi epithelium, and types of goblet cells within the crypts. Measurements in each segment were performed with a light microscope using CellSens Standard software (Olympus, Waltham, MA, USA).
# [1] = 1.25 wt. % genistein intraamniotic
# [2] = 2.5 wt. % genistein intraamniotic
# [3] = 2.5 wt. % genistein vs no injection and H2O, p < 0.05
# [4] = 2.5 wt. % vs 1.25 wt. % genistein, p < 0.05
# [5] = both genistein treatment groups vs control groups, p < 0.05
# [6] = genistein treatment groups (1.25, 2.5 wt. %) vs no injection, H2O and inulin, p < 0.05
structure (smiles),measurement,setting,value
"O=c1c(-c2ccc(O)cc2)coc2cc(O)cc(O)c12 [Genistein, genistein]",# Crypt Paneth Cells,[1],2.92 ± 0.10 ^b
same,Crypt Depth,[1],26.36 ± 0.46 ^c µm
same,Crypt Goblet Cell Diameter,[1],2.89 ± 0.02 ^a µm
same,Crypt Goblet Cell Number Acidic,[1],8.51 ± 0.14 ^a Unit
same,Crypt Goblet Cell Number Mixture,[1],0.74 ± 0.06 ^d Unit
same,Crypt Goblet Cell Number Neutral,[1],0.00 ± 0.00 ^a Unit
same,Crypt Goblet Cell Number Total,[1],9.25 ± 0.14 ^ab Unit
same,Crypt Paneth cell Diameter,[1],1.78 ± 0.04 ^a µm
same,Villi Goblet Cell Diameter,[1],3.41 ± 0.03 ^b µm
same,Villi Goblet Cell Number Acidic,[1],23.49 ± 0.67 ^a Unit
same,Villi Goblet Cell Number Mixture,[1],1.69 ± 0.13 ^e Unit
same,Villi Goblet Cell Number Neutral,[1],0.09 ± 0.03 ^b Unit
same,Villi Goblet Cell Number Total,[1],25.26 ± 0.67 ^a Unit
same,Villus Height,[1],204.18 ± 3.73 ^b µm
same,Villus Surface Area,[1],146.97 ± 4.55 ^c mm2
same,Villus Width,[1],44.51 ± 0.86 ^c µm
same,Crypt goblet cell diameter vs controls,"1.25 wt. % genistein vs all control groups, p < 0.05",significantly greater
same,Crypt Paneth cell diameter vs controls,"1.25 wt. % genistein vs no injection and 5 wt. % inulin, p < 0.05",significantly (p < 0.05) higher
same,Villus width vs controls,"1.25 wt. % genistein vs no injection and H2O, p < 0.05",significantly (p < 0.05) greater
same,# Crypt Paneth Cells,[2],3.24 ± 0.11 ^a
same,Crypt Depth,[2],23.65 ± 0.46 ^d µm
same,Crypt Goblet Cell Diameter,[2],2.63 ± 0.02 ^b µm
same,Crypt Goblet Cell Number Acidic,[2],8.81 ± 0.19 ^a Unit
same,Crypt Goblet Cell Number Mixture,[2],0.88 ± 0.06 ^d Unit
same,Crypt Goblet Cell Number Neutral,[2],0.00 ± 0.00 ^a Unit
same,Crypt Goblet Cell Number Total,[2],9.68 ± 0.19 ^a Unit
same,Crypt Paneth cell Diameter,[2],1.65 ± 0.03 ^b µm
same,Villi Goblet Cell Diameter,[2],3.50 ± 0.03 ^a µm
same,Villi Goblet Cell Number Acidic,[2],22.01 ± 0.51 ^b Unit
same,Villi Goblet Cell Number Mixture,[2],2.70 ± 0.16 ^d Unit
same,Villi Goblet Cell Number Neutral,[2],0.19 ± 0.04 ^a Unit
same,Villi Goblet Cell Number Total,[2],24.89 ± 0.54 ^a Unit
same,Villus Height,[2],238.22 ± 3.17 ^a µm
same,Villus Surface Area,[2],184.13 ± 4.66 ^b mm2
same,Villus Width,[2],48.27 ± 0.87 ^b µm
same,Crypt goblet cell diameter vs inulin,2.5 wt. % genistein vs 5 wt. % inulin,significantly higher
same,Villus height vs controls,[3],significantly increased
same,Villus surface area vs controls,[3],significantly increased
same,Villus width vs controls,[3],significantly increased
same,"Villus height, dose comparison",[4],significantly higher
same,"Villus surface area, dose comparison",[4],significantly higher
same,"Villus width, dose comparison",[4],significantly higher
same,Acidic villi goblet cell count vs controls,[5],significantly higher
same,Neutral villi goblet cell count vs controls,[5],significantly higher
same,Mixture villi goblet cells vs controls,"both genistein treatment groups vs controls, p < 0.05",significantly reduced
same,Acidic crypt goblet cell count vs controls,"both genistein treatment groups vs no injection, H2O and inulin, p < 0.05",significantly higher
same,Total crypt goblet cell count vs controls,"genistein exposure vs no injection and H2O, p < 0.05",significantly higher
same,Mixed crypt goblet cells vs controls,"genistein exposure vs no injection, H2O and inulin, p < 0.05",significantly reduced
same,Total number of villi goblet cells vs controls,[6],significantly higher
same,Villi goblet cell diameter vs controls,[6],significantly higher
same,Crypt depth vs control,"genistein treatment groups vs H2O-injection group, p < 0.05",significantly lower
same,Number of crypt Paneth cells vs controls,"genistein treatment groups vs no injection, H2O and inulin, p < 0.05",significantly greater
